Data taken from US20120035244A1, “PARP1 TARGETED THERAPY” (THE REGENTS OF THE UNIVERSITY OF MICHIGAN, priority 2010, published 2012).
“Also recorded” adds a separate entry of the source.

Key:
[1] = system: PC3-ERG xenografts; conditions: mouse, in vivo
Method: Four weeks old male Balb C nu/nu mice were purchased from Charles River, Inc. (Charles River Laboratory, Wilmington, Mass.). VCaP (2×10^6 cells), PC3-luciferase-control (1×10^5 cells) or PC3-luciferase-ERG (1×10^5 cells) stable cells were resuspended in 100 μl of saline with 50% Matrigel (BD Biosciences, Becton Drive, NJ) and were implanted subcutaneously into the left flank region of the mice. Mice were anesthetized using a cocktail of xylazine (80-120 mg/kg, IP) and ketamine (10 mg/kg, IP) for chemical restraint before tumor implantation. All tumors were staged for three week before starting the drug treatment. After week 3 for VCaP cells or after 48 hours for PC3 cells, mice (10 per treatment group) were treated with NU7026 (25 mg/kg, IP), Olaparib (40 mg/kg, IP) daily five times a week. Olaparib was obtained from Axon Medchem (Groningen, The Netherlands). Growth in tumor volume was recorded weekly by using digital calipers and tumor volumes were calculated using the formula (π/6) (L×W2), where L=length of tumor and W=width. Loss of body weight during the course of the study was also monitored weekly.

[2] = system: VCaP xenografts; experiment: VCaP mouse xenograft model; assay type: in vivo, mice; conditions: VCaP; Olaparib 40 mg/kg/day IP (P=0.001); NU7026 25 mg/kg/day IP (p=0.004)
Text: (§1) Olaparib was obtained from Axon Medchem (Groningen, The Netherlands).

[3] = system: VCaP cells; experiment: Basement membrane matrix invasion assay, VCaP cells; assay type: cell-based, human; conditions: P<0.01 for DNA-PKcs siRNA or NU7026>10 μM; P<0.05 for all PARP1 siRNA, NU1025 or Olaparib treatments
Method: (§2) For invasion assays, the prostate cell lines RWPE-1 and VCaP were transfected with siRNA or negative controls as indicated. NU7026 (Sigma) and NU1025 (Calbiochem) were dissolved in DMSO and stored at −20° C. in the dark. Forty-eight hours post-transfection/transduction, cells were seeded onto the basement membrane matrix (EC matrix, Chemicon, Temecula, Calif.) in the chamber insert with […] pores of a 24-well culture plate in serum free media. Cells were attracted to the lower chamber by the addition of complete media as a chemoattractant. After 48 hours incubation at 37° C. with 5% CO2, the non-invading cells and EC matrix were gently removed with a cotton swab. Invasive cells, which were located on the lower side of the membrane, were stained with crystal violet, air dried and photographed. To quantify the relative number of invaded cells, colorimetric assays were performed by treating the inserts with 150 μl of 10% acetic acid (v/v) and measuring absorbance of each condition at 560 nm using a spectrophotometer (GE Healthcare).

[4] = system: RWPE cells transduced with ERG adenovirus; experiment: Basement membrane matrix invasion assay, RWPE cells transduced with ERG adenovirus; assay type: cell-based, human; conditions: P<0.01 for DNA-PKcs siRNA or NU7026>10 μM, P<0.05 for all PARP1 siRNA, NU1025 or Olaparib treatments
Method: as §2

[5] = system: ERG target genes in VCaP cells; experiment: qPCR analysis of ERG-target genes in VCaP cells; assay type: cell-based, human; conditions: siRNA or drug for 48 hours
Method: Total RNA was isolated from VCAP, RWPE or PrEC cells that were transfected with siRNA as indicated (Qiagen). Quantitative PCR (QPCR) was performed using SYBR Green dye on an Applied Biosystems 7300 Real Time PCR system (Applied Biosystems, Foster City, Calif.) as described (Tomlins, S. A., et al. Science (New York, N.Y. 310, 644-648 (2005)). Briefly, 1 μg of total RNA was reverse transcribed into cDNA using SuperScript 111 (Invitrogen, Carlsbad, Calif.) in the presence of random primers (Invitrogen). All reactions were performed in triplicate with SYBR Green Master Mix (Applied Biosystems) plus 25 ng of both the forward and reverse primer according to the manufacturer's recommended thermocycling conditions, and then subjected to melt curve analysis. […] The relative quantity of the target gene was completed for each sample using the ΔΔCt method by the comparing mean Ct of the gene to the average Ct of the housekeeping gene, β-Actin8. […] The primer sequences for the transcript analyzed were either previously described (Tomlins et al., 2008, supra) or are provided in Table 4.
Total RNA was isolated from VCAP, RWPE or PrEC cells that were transfected with siRNA as indicated (Qiagen). […] The relative quantity of the target gene was completed for each sample using the ΔΔCt method by the comparing mean Ct of the gene to the average Ct of the housekeeping gene, β-Actin8. […]

[6] = system: PC3-LACZ xenografts; experiment: PC3-LACZ mouse xenograft model; assay type: in vivo, mice; conditions: PC3-LACZ (ETS negative)
Text: as §1

[7] = system: VCaP and PC3 xenograft tumors; experiment: Ki67 and CD31 immunohistochemistry on tissue microarray of VCaP and PC3 xenograft tumors; conditions: pairwise t-test
Method: Changes in both relative cell proliferation of the tumors (Ki67) and microvessel density (CD31) were assessed using a tissue microarray made from formalin-fixed, paraffin-embedded tumors from all xenograft tumors analyzed in the VCaP and PC3 studies.

[8] = system: PC3 xenografts; experiment: PC3 (PC3-control) mouse xenograft model; assay type: in vivo, mice; conditions: PC3 / PC3-control (ETS negative); Olaparib 40 mg/kg IP, NU7026 25 mg/kg IP
Text: as §1

[9] = Total cell number after 72 hours (data not shown); assay type: cell-based
[10] = system: ERG-target gene expression; experiment: qPCR of ERG-target genes in staged PC3-ERG tumors; assay type: in vivo, mice; conditions: 4 hours, 40 mg/kg Olaparib or 25 mg/kg NU7026

O=c1cc(N2CCOCC2)oc2c1ccc1ccccc12 [NU7026]
xenograft growth [1]: unable to reduce the xenograft growth rate | tumor growth relative to the vehicle control [2]: significant reduction of tumor growth | VCaP cell invasion [3]: attenuated invasion | ERG-driven cell invasion [4]: attenuated invasion | expression of the ERG target genes (qPCR) [5]: confirmed gene expression changes as predicted by the gene expression arrays; also recorded: altered expression of the ERG target genes | xenograft growth [6]: did not significantly inhibit xenograft growth | average number of Ki67 positive cells [7]: Neither NU7026 nor Olaparib consistently led to a significant change | microvessel density (CD31) [7]: Neither NU7026 nor Olaparib consistently led to a significant change | xenograft growth [8]: did not block the growth; also recorded: did not significantly inhibit xenograft growth | total cell number [9]: did not alter total cell number | ERG-target gene expression in tumors (qPCR) [10]: loss of ERG-target gene expression
